According to patent publication US20230285372A1, “Pharmaceutical use of (E)-3-arylheterocyclylprop-2-enoic acid derivatives” (MEDCURIUS INC., priority 2020, published 2023):

How the values were obtained:
Nrf2 = Nrf2 protein level in the nucleus of HT-22 cells, Western Blot; type: cell-based, mouse; settings: 1.25 μM and 0.625 μM, 24 hours, vs control group
Text: (§1) As a transcription factor, Nrf2 needs to enter the nucleus and combine with ARE sequence to play a role in transcriptional activation. Therefore, Nrf2 protein level in the nucleus is an important prerequisite for the activation of Nrf2 signaling pathway. NQO-1 and HO-1 are target genes regulated by Nrf2, and the increase of their protein levels is an important sign of activation of the Nrf2 signaling pathway.
(§2) HT-22 cells in logarithmic growth phase were selected, the culture medium was discarded, the cells were digested with 0.25% Trypsin containing EDTA, and cell suspension was made. Cell density was adjusted to 50000/ml with DMEM/F12 medium (containing 10% FBS and 1% double antibody) and it was inoculated to 6-well plate, with 2000 μL/well, the number of cells per well was 100, 000, and the cells were cultured in a cell incubator at 37° C. in an atmosphere containing 5% CO2 for 24 hours. Then, the medium of each well was replaced with new 1980 μL DMEM/F12 medium. […] After 24 hours, the cells were collected, nuclear protein and cytoplasmic protein were extracted, and the level of Nrf2 in the nucleus and the expression of NQO-1 and HO-1 in cytoplasm were detected by Western Blot.

[1] = test system: MPTP-induced Parkinson's disease mouse; test: Rotarod test, MPTP-induced Parkinson's disease mouse; type: in vivo; settings: vs model group
Procedure: Male C57 mouse were screened for their motor function by a mouse rod-rotating test, and unqualified ones were excluded from the test. […] MPTP was injected subcutaneously every 4 days in the model group and the drug administration group with a dosage of 25 mg/kg for 40 consecutive days. Each group of I-5 was administered once a day at 8:00 am and 8:00 pm (by intragastric administration), twice in total. […] The intragastric volume was 0.1 ml/10 g body weight, and the behavior test was started 40 days later. […] The storage time of the prepared liquid medicine was not more than 24 hours.
On the first day, the mouse acclimated to a rotating speed of 5 rpm for two times, each time for 5 minutes. On the second day, the rotarod turned at a speed of 10 rpm, the mouse acclimated to the speed for two times, each time for 5 minutes. On the third day, the rotarod turned at a speed of 15 rpm, the mouse acclimated to the speed for two times, each time for 3 minutes. On the fourth day, a behavioral test was started. The rotarod turned at a speed of 15 rpm for a period of 3 minutes. The time mouse spent on the rotarod (fall latency) was taken as an index for evaluation of their motor coordination. The test was repeated three times for each animal, with an interval of 30 minutes to eliminate the interference of exercise fatigue on the motion ability of animals.

NQO-1 = NQO-1 expression in HT-22 cytoplasm, Western Blot; type: cell-based, mouse; settings: HT-22 cells, 1.25 μM, 24 hours, vs control group
Text: as §1, §2

HT-22 cells = test: Protective effect on HT-22 cell damage caused by L-glutamate monosodium salt; type: cell-based, mouse; settings: 15 mM L-glutamate
Procedure: (§3) Well-proliferated HT-22 cells, derived from mouse hippocampal neuronal cells in logarithmic growth phase, were selected, and they were counted after being subjected to trypsin digestion and dispersion. The cell density was adjusted with DMEM/F12 medium (containing 10% FBS and 1% double antibody). The cells were then inoculated in a 96-well plate at a density of 2,000 cells per well, and cultured in a cell incubator at 37° C. in atmosphere containing 5% CO2 for 24 hours. For the control group and the L-glutamate monosodium salt group (model group), serum-free DMEM/F12 medium was added, and the other wells were added with tested compounds of different concentrations; except that the serum-free DMEM/F12 medium was added to the control group. L-glutamate monosodium salt solution at the final concentration of 15 mM was added to the remaining wells. After 24 hours, the cell viability was detected with a luminescent cell viability assay kit.
as §3, with “group,” for “group.”
as §3, with “2.000” for “2,000”, “group,” for “group.”

α-synuclein protein = α-synuclein protein level in midbrain, Western blot, MPTP mouse; type: in vivo; settings: high dosage treatment group of I-5; vs model group, p<0.05
Text: The core pathological change of Parkinson's disease is the loss of dopaminergic neurons. Tyrosine hydroxylase (TH), the rate-limiting enzyme in dopamine synthesis, is the landmark protein of the dopaminergic neurons. Therefore, the decrease in its level indicates the loss of the dopaminergic neurons. A key protein for the occurrence and development of Parkinson's disease is α-synuclein protein, and the abnormal modification (hyperphosphorylation) of this protein can inhibit microtubule polymerization, enhance oxidative stress, and thus accelerate the death of the dopaminergic neurons.
Male C57 mouse were screened for their motor function by a mouse rod-rotating test, and unqualified ones were excluded from the test. […] MPTP was injected subcutaneously every 4 days in the model group and the drug administration group with a dosage of 25 mg/kg for 40 consecutive days. Each group of I-5 was administered once a day at 8:00 am and 8:00 pm (by intragastric administration), twice in total. […]
Tissues from all the animals were collected on the second day after the end of the behavioral experiment. […] The level of tyrosine hydroxylase (TH), a marker protein of dopaminergic neurons, was detected by immumohistochemistry, and α-synuclein protein level and phosphorylation level of the protein were detected by Western blot.

[2] = test system: tyrosine hydroxylase (TH); test: Tyrosine hydroxylase (TH) level in midbrain, immunohistochemistry, MPTP mouse; type: in vivo; settings: medium and high dosage of I-5 (10 and 20 mg/kg bid); vs model group
Procedure: Male C57 mouse were screened for their motor function by a mouse rod-rotating test, and unqualified ones were excluded from the test. […] MPTP was injected subcutaneously every 4 days in the model group and the drug administration group with a dosage of 25 mg/kg for 40 consecutive days. Each group of I-5 was administered once a day at 8:00 am and 8:00 pm (by intragastric administration), twice in total. The control group and model group were given the corresponding solvent once a day in the morning (by intragastric administration) while the positive control group (L-DOPA) was given L-DOPA once a day in the morning (by intragastric administration). The intragastric volume was 0.1 ml/10 g body weight, and the behavior test was started 40 days later. […] The storage time of the prepared liquid medicine was not more than 24 hours.

N#C/C=C/c1ccccn1 [Compound I-5]
protein level of Nrf2 in the nucleus (Nrf2): significantly higher than that of the control group | fall latency in the Rotarod test ([1]; 5 mg/kg bid intragastric, p>0.05): no significant difference | fall latency in the Rotarod test ([1]; medium and high dosage groups (10 and 20 mg/kg bid), p<0.0001): significantly prolonged | protein level of NQO-1 (NQO-1): increased significantly | protection of HT22 cells against L-glutamate monosodium salt damage, in words (HT-22 cells; HT22 cells, comparison with positive control drug DMF): better effects than the positive control drug DMF | viability at 0.156 µM (HT-22 cells; Mus musculus, HT-22, 24 h, Table 1, Conc 0.156 μm, 24 hours, L-Glu alone 27.73 (I-5 32.92), read-out: cell viability): 79.3% | viability at 0.625 µM (HT-22 cells; Mus musculus, HT-22, 24 h, Table 1, Conc 0.625 μm, 24 hours, L-Glu alone 27.73 (I-5 32.92), read-out: cell viability): 73.7% | viability at 2.5 µM (HT-22 cells; Mus musculus, HT-22, 24 h, Table 1, Conc 2.5 μm, 24 hours, L-Glu alone 27.73 (I-5 32.92), read-out: cell viability): 57.6% | viability at 5 µM (HT-22 cells; Mus musculus, HT-22, 24 h, Table 1, Conc 5 μm, 24 hours, L-Glu alone 27.73 (I-5 32.92), read-out: cell viability): 58.2% | α-synuclein protein level in the midbrain (α-synuclein protein): significantly higher than that of the model group | TH positive area of substantia nigra [2]: significantly increase the TH positive area
